The results in this text go back to patent USRE48267E1, “Variants of C-type natriuretic peptide” (priority 2009, dated 2020).

*1 amine or outer side, *2 acyl side, *3 side chain or, on linkers, in order; H or OH if unused. Where a SMILES comes first, the peptide text is derived from it. Bridges are numbered along the chain shown (N, C = ends). Where no end group is shown, it is not given here. [ ]: non-standard residue; d: D form. X1 = O=C(C(CN[*:1])c1ccccc1)[*:2]

Data set [1] has as its target Recombinant human NEP (Homo sapiens, UniProt P08473). Description: in vitro NEP cleavage assay (disappearance of non-cleaved CNP variant). The procedure, abridged: (§1)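 Recombinant human NEP (1 ug/mL final) incubated with 100 uM CNP variant in 0.1 M Tris, pH 7, at 37° C for various times, then quenched with EDTA (10 mM final) and heat. Samples reduced and analysed by HPLC and mass spectrometry. Half-life derived from loss of intact variant over time.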

For data set [2], the target named is neutral endopeptidase (NEP) (Homo sapiens, UniProt P08473). Described as above. Particulars: human, pH 7. The procedure, abridged: as §1
Sequence of neutral endopeptidase (NEP) (P08473 whole entry): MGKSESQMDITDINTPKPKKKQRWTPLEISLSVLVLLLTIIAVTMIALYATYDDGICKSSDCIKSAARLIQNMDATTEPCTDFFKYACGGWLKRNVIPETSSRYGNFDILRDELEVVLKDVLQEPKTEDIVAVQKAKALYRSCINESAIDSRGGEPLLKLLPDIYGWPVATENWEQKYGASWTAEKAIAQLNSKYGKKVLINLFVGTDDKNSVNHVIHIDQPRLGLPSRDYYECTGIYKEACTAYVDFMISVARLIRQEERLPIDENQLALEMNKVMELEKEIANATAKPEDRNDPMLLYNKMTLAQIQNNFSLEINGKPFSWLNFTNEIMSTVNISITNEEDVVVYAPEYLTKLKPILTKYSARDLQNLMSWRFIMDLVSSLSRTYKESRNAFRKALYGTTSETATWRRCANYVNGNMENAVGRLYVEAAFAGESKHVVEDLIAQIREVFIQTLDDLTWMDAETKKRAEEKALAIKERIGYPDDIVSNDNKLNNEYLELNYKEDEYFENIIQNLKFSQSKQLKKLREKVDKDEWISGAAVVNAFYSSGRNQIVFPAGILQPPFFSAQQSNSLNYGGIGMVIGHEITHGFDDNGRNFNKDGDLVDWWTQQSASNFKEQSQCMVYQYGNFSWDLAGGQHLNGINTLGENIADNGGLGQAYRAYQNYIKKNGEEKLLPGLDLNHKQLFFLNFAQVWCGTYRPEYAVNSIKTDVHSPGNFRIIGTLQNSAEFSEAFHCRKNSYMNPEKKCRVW
Data set [3] can be described thus: pharmacokinetics in rats (plasma CNP immunoreactivity by RIA). In kind it is in vivo, rat. The following applies: male, rat, plasma, iv, i.v. 20 nmol/kg. As to the method: Recombinant wild-type CNP22, CNP37 and PEO24-GANRR-CNP22 […]) (SEQ ID NO: 36) were evaluated. […] Standard and QC samples were prepared. […] Plasma CNP immunoreactivity was employed for pharmacokinetics (PK) analysis. PK analysis was performed using WINNONLIN® Professional (Pharsight Corporation).

The target of data set [4] is T1, NPR-B (natriuretic peptide receptor B), murine, expressed endogenously on NIH3T3 cells (murine, UniProt Q6VVW5 17-1047).
T1 sequence (looked up): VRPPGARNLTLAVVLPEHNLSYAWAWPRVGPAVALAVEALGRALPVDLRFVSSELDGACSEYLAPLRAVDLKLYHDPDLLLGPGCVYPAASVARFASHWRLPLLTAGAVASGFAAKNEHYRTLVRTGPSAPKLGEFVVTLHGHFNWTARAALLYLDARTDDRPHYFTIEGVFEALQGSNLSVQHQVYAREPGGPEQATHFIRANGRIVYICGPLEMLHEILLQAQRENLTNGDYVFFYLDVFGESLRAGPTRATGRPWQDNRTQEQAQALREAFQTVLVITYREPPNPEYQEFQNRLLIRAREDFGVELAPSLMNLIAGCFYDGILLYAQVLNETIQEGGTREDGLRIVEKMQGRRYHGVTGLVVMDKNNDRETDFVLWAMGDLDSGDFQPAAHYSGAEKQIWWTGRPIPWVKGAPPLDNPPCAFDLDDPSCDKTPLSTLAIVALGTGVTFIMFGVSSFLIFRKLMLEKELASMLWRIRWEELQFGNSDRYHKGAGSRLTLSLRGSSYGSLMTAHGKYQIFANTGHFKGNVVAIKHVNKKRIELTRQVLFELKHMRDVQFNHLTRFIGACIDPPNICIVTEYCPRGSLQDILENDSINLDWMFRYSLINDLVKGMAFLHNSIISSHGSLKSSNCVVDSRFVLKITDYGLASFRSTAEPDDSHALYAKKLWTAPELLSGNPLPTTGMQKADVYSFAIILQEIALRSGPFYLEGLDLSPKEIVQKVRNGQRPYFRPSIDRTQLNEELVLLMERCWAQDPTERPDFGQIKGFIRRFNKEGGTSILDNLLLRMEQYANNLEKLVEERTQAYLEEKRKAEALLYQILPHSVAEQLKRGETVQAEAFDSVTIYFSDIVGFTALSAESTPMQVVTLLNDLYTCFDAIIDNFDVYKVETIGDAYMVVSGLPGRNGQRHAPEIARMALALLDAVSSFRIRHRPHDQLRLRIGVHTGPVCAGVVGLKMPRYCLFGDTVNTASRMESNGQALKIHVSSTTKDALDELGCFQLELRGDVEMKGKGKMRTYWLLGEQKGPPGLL
In words: cell-based or functional assay.

Sequence of Recombinant human NEP (P08473 whole entry): as the sequence (P08473 whole entry) above

Take `CC[C@H](C)[C@@H]1NC(=O)[C@H](CCCNC(=N)N)NC(=O)[C@H](CC(=O)O)NC(=O)[C@H](CC(C)C)NC(=O)[C@H](CCCCN)NC(=O)[C@H](CC(C)C)NC(=O)CNC(=O)C(c2ccccc2)CNC(=O)[C@@H](NC(=O)CNC(=O)[C@H](CCCCN)NC(=O)[C@H](CO)NC(=O)[C@H](CC(C)C)NC(=O)CN)CSSC[C@@H](C(=O)O)NC(=O)CNC(=O)[C@H](CC(C)C)NC(=O)CNC(=O)[C@H](CO)NC(=O)[C@H](CCSC)NC(=O)[C@H](CO)NC(=O)CNC1=O` (stereo partly shown) [Analog H] (H-GLSKGC[X1]GLKLDRIGSMSGLGC-OH; disulfide 6-22): the “resistance to cleavage at the Cys6-Phe7 bond relative to wtCNP22” value in data set [1] is given as “resistance or improved resistance”. Moreover, the half-life at 100 uM in data set [2] (recombinant human NEP (neutral endopeptidase)) worked out at 1.33 h. As to `CC[C@H](C)[C@@H]1NC(=O)[C@H](CCCNC(=N)N)NC(=O)[C@H](CC(=O)O)NC(=O)[C@H](CC(C)C)NC(=O)[C@H](CCCCN)NC(=O)[C@H](CC(C)C)NC(=O)CNC(=O)[C@H](Cc2ccccc2)NC[C@@H](NC(=O)CNC(=O)[C@H](CCCCN)NC(=O)[C@H](CO)NC(=O)[C@H](CC(C)C)NC(=O)CN)CSSC[C@@H](C(=O)O)NC(=O)CNC(=O)[C@H](CC(C)C)NC(=O)CNC(=O)[C@H](CO)NC(=O)[C@H](CCSC)NC(=O)[C@H](CO)NC(=O)CNC1=O` [Analog A], the “resistance to cleavage at the Cys6-Phe7 bond relative to wtCNP22” value in data set [1] is listed as “resistance or improved resistance”. The same molecule registered a half-life at 100 uM in data set [2] of 0.917 h. `CC[C@H](C)[C@@H]1NC(=O)[C@H](CCCNC(=N)N)NC(=O)[C@H](CC(=O)O)NC(=O)[C@H](CC(C)C)NC(=O)[C@H](CCCCN)NC(=O)[C@H](CC(C)C)NC(=O)CNC(=O)[C@H](Cc2ccccc2)NC(=O)[C@@H](NC(=O)CNC(=O)[C@H](CCCCN)NC(=O)[C@H](CO)NC(=O)[C@H](CC(C)C)NC(=O)CNC(=O)CCCC(=O)NCCOCCOCCOCCOCCC(=O)NC(COCCC(=O)NCCOCCOCCOCCOCCOCCOCCOCCOCCOCCOCCOC)(COCCC(=O)NCCOCCOCCOCCOCCOCCOCCOCCOCCOCCOCCOC)COCCC(=O)NCCOCCOCCOCCOCCOCCOCCOCCOCCOCCOCCOC)CSSC[C@@H](C(=O)O)NC(=O)CNC(=O)[C@H](CC(C)C)NC(=O)CNC(=O)[C@H](CO)NC(=O)[C@H](CCSC)NC(=O)[C@H](CO)NC(=O)CNC1=O` [PEO4-(PEO12)3(branched)-CNP22]: the half-life at 100 uM in data set [2] is over 2.67 h.

In the case of `CC[C@H](C)[C@@H]1NC(=O)[C@H](CCCNC(=N)N)NC(=O)[C@H](CC(=O)O)NC(=O)[C@H](CC(C)C)NC(=O)[C@H](CCCCN)NC(=O)[C@H](CC(C)C)NC(=O)CNC(=O)[C@H](Cc2ccccc2)NC(=O)[C@@H](NC(=O)CNC(=O)CNC(=O)[C@H](CO)NC(=O)[C@H](CC(C)C)NC(=O)CN)CSSC[C@@H](C(=O)O)NC(=O)CNC(=O)[C@H](CC(C)C)NC(=O)CNC(=O)[C@H](CO)NC(=O)[C@H](CCSC)NC(=O)[C@H](CO)NC(=O)CNC1=O` [Analog P, CNP22, K4G] (H-GLSGGCFGLKLDRIGSMSGLGC-OH; disulfide 6-22), the half-life at 100 uM in data set [2] (recombinant human neutral endopeptidase (NEP)) was 1.13 h. Regarding `CC[C@H](C)[C@@H]1NC(=O)[C@H](CCCNC(=N)N)NC(=O)[C@H](CC(=O)O)NC(=O)[C@H](CC(C)C)NC(=O)[C@H](CCCCN)NC(=O)[C@H](CC(C)C)NC(=O)CNC(=O)[C@H](Cc2ccccc2)NC(=O)[C@@H](NC(=O)CNC(=O)[C@H](CCCCN)NC(=O)[C@H](CO)NC(=O)[C@H](CC(C)C)NC(=O)CNC(=O)CCOCCOCCOCCOCCOCCOCCOCCOCCOCCOCCOCCOC)CSSC[C@@H](C(=O)O)NC(=O)CNC(=O)[C@H](CC(C)C)NC(=O)CNC(=O)[C@H](CO)NC(=O)[C@H](CCSC)NC(=O)[C@H](CO)NC(=O)CNC1=O` [PEO12-CNP22], in data set [2], the half-life at 100 uM was found to be 2.67 h. As for `CC[C@H](C)[C@@H]1NC(=O)[C@H](CCCNC(=N)N)NC(=O)[C@H](CC(=O)O)NC(=O)[C@H](CC(C)C)NC(=O)[C@H](CCCCN)NC(=O)[C@H](CC(C)C)NC(=O)CNC(=O)[C@H](Cc2ccccc2)NC(=O)[C@@H](NC(=O)CNC(=O)[C@H](CCCCN)NC(=O)[C@H](CO)NC(=O)[C@H](CC(C)C)NC(=O)CNC(=O)[C@H](CCCCN)NC(=O)[C@H](CCCCN)NC(=O)[C@H](CC(N)=O)NC(=O)[C@H](C)NC(=O)CNC(=O)[C@H](CCCCN)NC(=O)[C@H](Cc2ccc(O)cc2)NC(=O)[C@H](CCCCN)NC(=O)[C@H](CCCNC(=N)N)NC(=O)[C@H](C)NC(=O)[C@H](CC(N)=O)NC(=O)[C@@H]2CCCN2C(=O)[C@H](Cc2c[nH]cn2)NC(=O)[C@H](CCC(=O)O)NC(=O)[C@@H](N)CCC(N)=O)CSSC[C@@H](C(=O)O)NC(=O)CNC(=O)[C@H](CC(C)C)NC(=O)CNC(=O)[C@H](CO)NC(=O)[C@H](CCSC)NC(=O)[C@H](CO)NC(=O)CNC1=O` [Analog BL], the AUC in data set [3] (read-out: area under the curve, AUC (converted)) was 0.026 µM·h. Besides, the half-life in data set [3] (read-out: half-life, T1/2) worked out at 0.825 h.

Turning to G[dL][dS][dK]G[dC][dF]G[dL][dK][dL][dD][dR][dI]G[dS][dM][dS]G[dL]G[dC] (ends and bridges not checked) [D-CNP22 (all D-amino acids)], in data set [4], the “cGMP response rel. to 1 uM CNP22; 10 nM peptide, NIH3T3 cells” value was 2 rel. to 1 uM CNP22 (100) and the “cGMP response rel. to 1 uM CNP22; 1 uM peptide, NIH3T3 cells” value was 1 rel. to 1 uM CNP22 (100).

B1: CNP22, C6-CH2-NH (reduced carbonyl) (peptide)
peptide: GLSKGCFGLKLDRIGSMSGLGC
modifications: ends and bridges not checked; also: backbone C=O of Cys6 reduced to CH2 (C6-CH2-NH isostere)
Take B1: in data set [4], the “cGMP response rel. to 1 uM CNP22; 10 nM peptide, NIH3T3 cells” value is 6 rel. to 1 uM CNP22 (100) and the “cGMP response rel. to 1 uM CNP22; 1 uM peptide, NIH3T3 cells” value was 66 rel. to 1 uM CNP22 (100).

For orientation: AUC means the area under the concentration-time curve, a measure of exposure.
